Results taken from US20250302832A1, “PYRAZINE DERIVATIVES AND USES THEREOF” (FOGHORN THERAPEUTICS INC., priority 2022, published 2025).

Key:
HiBit-BRM fusion protein = molecular target: T1, HiBit-BRM fusion protein (Homo sapiens, UniProt P51531); test: HiBiT-BRM cell-based degradation assay (Nano-Glo HiBiT lytic detection, 24 h); conditions: HeLa cell line expressing HiBiT-BRM; for DC50: read-out: BRM HiBit Degradation IC50
T1 construct: expressed in transfected cells
How it was run: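 Stable HeLa HiBiT-BRM cells treated 24 h with compounds (10-point 3-fold dilutions, 30 μM final top dose, duplicate). HiBiT levels read by Nano-Glo lytic luminescence; % degradation normalised to DMSO (high control) and 2 μM reference BRM/BRG1 degrader (low control).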

[1] = molecular target: T2, HiBit-BRG1 fusion protein (Homo sapiens, UniProt P51532); test: HiBiT-BRG1 cell-based degradation assay (Nano-Glo HiBiT lytic detection, 24 h); conditions: HeLa cell line expressing HiBit-BRG1 and LgBit; for Dmax: read-out: BRG1 HiBit Degradation Maximum (%); for DC50: read-out: BRMG1 HiBit Degradation IC50
T2 construct: expressed in transfected cells
How it was run: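 HeLa cells stably expressing HiBiT-BRG1 and LgBiT, 5000 per well, compound-treated 24 h, equilibrated 15 min at room temperature, then lysed with LgBiT-containing Nano-Glo HiBiT lytic reagent and luminescence read. % degradation normalised between DMSO (high control) and 2 μM reference BRM/BRG1 degrader (low control).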

T1 sequence (P51531 whole entry, the tested form may be a part): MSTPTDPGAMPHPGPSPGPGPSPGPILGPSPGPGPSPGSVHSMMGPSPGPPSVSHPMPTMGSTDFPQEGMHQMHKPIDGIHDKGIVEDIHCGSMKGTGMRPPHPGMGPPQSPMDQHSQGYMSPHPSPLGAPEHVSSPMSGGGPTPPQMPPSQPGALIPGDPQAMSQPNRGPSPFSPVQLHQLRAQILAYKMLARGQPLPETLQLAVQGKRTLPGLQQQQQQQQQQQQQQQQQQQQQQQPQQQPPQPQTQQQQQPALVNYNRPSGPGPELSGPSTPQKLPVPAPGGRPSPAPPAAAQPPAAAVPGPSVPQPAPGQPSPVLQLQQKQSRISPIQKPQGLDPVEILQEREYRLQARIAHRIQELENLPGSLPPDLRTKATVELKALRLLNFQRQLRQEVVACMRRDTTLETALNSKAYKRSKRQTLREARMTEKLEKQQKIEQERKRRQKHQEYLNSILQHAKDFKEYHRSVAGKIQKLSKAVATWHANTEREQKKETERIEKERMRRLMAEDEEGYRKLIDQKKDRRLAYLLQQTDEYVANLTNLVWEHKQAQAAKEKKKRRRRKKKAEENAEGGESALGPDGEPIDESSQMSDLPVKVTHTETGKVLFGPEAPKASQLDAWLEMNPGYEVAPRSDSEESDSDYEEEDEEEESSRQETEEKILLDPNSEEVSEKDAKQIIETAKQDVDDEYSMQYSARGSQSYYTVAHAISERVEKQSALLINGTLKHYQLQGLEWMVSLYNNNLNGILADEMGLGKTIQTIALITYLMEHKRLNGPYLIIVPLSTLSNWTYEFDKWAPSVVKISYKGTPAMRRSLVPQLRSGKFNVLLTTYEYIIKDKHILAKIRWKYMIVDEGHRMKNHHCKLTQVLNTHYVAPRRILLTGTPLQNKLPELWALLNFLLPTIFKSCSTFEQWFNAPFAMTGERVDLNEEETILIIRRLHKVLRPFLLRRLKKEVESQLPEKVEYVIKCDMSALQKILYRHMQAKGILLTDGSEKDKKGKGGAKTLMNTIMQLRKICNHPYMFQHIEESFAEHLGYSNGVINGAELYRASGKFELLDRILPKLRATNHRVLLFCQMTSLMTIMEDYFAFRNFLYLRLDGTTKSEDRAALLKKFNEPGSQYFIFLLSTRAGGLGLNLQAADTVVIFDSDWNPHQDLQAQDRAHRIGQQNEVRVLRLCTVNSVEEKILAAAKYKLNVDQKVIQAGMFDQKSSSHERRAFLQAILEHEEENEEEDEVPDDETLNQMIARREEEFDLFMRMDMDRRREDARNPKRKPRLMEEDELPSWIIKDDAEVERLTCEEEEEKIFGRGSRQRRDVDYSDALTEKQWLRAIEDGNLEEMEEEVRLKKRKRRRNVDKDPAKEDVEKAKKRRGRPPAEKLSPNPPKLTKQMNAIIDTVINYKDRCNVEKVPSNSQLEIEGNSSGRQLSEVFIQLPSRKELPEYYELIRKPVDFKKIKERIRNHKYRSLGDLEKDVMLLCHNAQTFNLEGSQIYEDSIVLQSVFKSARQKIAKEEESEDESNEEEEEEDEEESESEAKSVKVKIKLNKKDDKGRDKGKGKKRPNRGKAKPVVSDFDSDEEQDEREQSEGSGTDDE
T2 sequence (P51532 whole entry, the tested form may be a part): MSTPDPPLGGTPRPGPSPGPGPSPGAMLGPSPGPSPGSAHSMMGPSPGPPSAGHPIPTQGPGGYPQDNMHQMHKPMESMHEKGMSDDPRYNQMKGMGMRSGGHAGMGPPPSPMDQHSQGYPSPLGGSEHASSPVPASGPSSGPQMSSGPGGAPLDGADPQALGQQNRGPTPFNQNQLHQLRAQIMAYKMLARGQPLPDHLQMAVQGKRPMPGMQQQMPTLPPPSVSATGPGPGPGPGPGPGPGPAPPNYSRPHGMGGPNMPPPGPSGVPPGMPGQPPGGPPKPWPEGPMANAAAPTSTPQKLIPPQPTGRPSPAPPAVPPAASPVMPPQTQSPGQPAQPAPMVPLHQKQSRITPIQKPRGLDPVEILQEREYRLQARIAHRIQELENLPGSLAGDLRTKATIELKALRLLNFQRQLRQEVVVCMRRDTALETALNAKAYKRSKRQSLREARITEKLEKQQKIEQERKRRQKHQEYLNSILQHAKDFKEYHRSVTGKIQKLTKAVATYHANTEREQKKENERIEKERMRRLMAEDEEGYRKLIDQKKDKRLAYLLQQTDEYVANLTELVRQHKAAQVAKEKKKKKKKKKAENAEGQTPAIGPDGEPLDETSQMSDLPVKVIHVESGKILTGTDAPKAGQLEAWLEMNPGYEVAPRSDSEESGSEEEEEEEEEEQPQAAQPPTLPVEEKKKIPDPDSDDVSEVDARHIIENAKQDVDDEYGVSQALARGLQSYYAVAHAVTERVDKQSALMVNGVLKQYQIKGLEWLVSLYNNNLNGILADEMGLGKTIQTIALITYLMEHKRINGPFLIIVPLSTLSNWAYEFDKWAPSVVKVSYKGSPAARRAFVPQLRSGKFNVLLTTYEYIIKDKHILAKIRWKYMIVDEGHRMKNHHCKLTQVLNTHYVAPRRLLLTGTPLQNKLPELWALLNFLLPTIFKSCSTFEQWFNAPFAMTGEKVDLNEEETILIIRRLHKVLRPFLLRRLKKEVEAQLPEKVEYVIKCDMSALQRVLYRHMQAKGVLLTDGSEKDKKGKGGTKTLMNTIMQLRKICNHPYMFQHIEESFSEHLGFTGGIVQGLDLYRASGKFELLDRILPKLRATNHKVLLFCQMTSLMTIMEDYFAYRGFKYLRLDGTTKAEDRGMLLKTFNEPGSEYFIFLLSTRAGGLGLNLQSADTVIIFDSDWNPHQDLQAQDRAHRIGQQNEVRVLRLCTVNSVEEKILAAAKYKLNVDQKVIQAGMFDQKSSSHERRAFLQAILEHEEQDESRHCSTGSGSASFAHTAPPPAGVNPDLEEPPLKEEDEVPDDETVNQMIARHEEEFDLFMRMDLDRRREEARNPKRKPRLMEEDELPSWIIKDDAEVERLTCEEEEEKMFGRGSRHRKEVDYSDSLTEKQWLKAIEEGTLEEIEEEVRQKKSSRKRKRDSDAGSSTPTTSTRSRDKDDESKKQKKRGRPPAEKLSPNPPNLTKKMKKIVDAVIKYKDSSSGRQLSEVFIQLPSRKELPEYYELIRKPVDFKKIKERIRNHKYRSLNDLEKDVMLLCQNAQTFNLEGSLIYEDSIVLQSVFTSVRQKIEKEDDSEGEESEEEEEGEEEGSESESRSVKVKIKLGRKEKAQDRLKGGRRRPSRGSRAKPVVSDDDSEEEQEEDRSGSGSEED

| SMILES | DC50 (HiBit-BRM fusion protein) [nM] | Dmax [1] [%] | DC50 [1] [nM] | BRM HiBit Degradation Maximum (%) (HiBit-BRM fusion protein) |
| --- | --- | --- | --- | --- |
| C#CCNC(=O)[C@@H]1C[C@@H](O)CN1C(=O)C(c1cc(N2CC3(CC(c4cc5nnc(-c6ccccc6O)cc5n4C4CCC4)C3)C2)no1)C(C)C (stereo partly drawn) [Compound 53, (2S,4R)-1-(2-(3-(6-(5-cyclobutyl-3-(2-hydroxyphenyl)-5H-pyrrolo[3,2-c]pyridazin-6-yl)-2-azaspiro[3.3]heptan-2-yl)isoxazol-5-yl)-3-methylbutanoyl)-4-hydroxy-N-(prop-2-yn-1-yl)pyrrolidine-2-carboxamide] | > 10 | < 50 |  | A (“A” indicates maximum degradation ≥75%) |
| CC(C)NC(=O)[C@@H]1C[C@@H](O)CN1C(=O)C(c1cc(N2CC3(CC(c4cc5nnc(-c6ccccc6O)cc5n4C4CCC4)C3)C2)no1)C(C)C (stereo partly drawn) [Compound 54, (2S,4R)-1-(2-(3-(6-(5-cyclobutyl-3-(2-hydroxyphenyl)-5H-pyrrolo[3,2-c]pyridazin-6-yl)-2-azaspiro[3.3]heptan-2-yl)isoxazol-5-yl)-3-methylbutanoyl)-4-hydroxy-N-isopropylpyrrolidine-2-carboxamide] | > 10 | < 50 |  | A (“A” indicates maximum degradation ≥75%) |
| CC(C)C(C(=O)N1C[C@H](O)C[C@H]1C(=O)NCC1CC1)c1cc(N2CC3(CC(c4cc5nnc(-c6ccccc6O)cc5n4C4CCC4)C3)C2)no1 (stereo partly drawn) [Compound 55, (2S,4R)-1-(2-(3-(6-(5-cyclobutyl-3-(2-hydroxyphenyl)-5H-pyrrolo[3,2-c]pyridazin-6-yl)-2-azaspiro[3.3]heptan-2-yl)isoxazol-5-yl)-3-methylbutanoyl)-N-(cyclopropylmethyl)-4-hydroxypyrrolidine-2-carboxamide] | > 10 | < 50 |  | A (“A” indicates maximum degradation ≥75%) |
| C#Cc1ccc([C@H](C)NC(=O)[C@@H]2C[C@@H](O)CN2C(=O)C(c2cc(N3CC4(CC(c5cc6nnc(-c7ccccc7O)cc6n5C5CCC5)C4)C3)no2)C(C)C)cc1 (stereo partly drawn) [Compound 60, (2S,4R)-1-(2-(3-(6-(5-cyclobutyl-3-(2-hydroxyphenyl)-5H-pyrrolo[3,2-c]pyridazin-6-yl)-2-azaspiro[3.3]heptan-2-yl)isoxazol-5-yl)-3-methylbutanoyl)-N-((S)-1-(4-ethynylphenyl)ethyl)-4-hydroxypyrrolidine-2-carboxamide] | < 10 | < 50 |  | A (“A” indicates maximum degradation ≥75%) |
| Cc1ncsc1-c1ccc([C@H](C)NC(=O)[C@@H]2C[C@@H](O)CN2C(=O)[C@@H](c2cc(-c3cnc(N4CC5(CC(c6cc7nnc(-c8ccccc8O)cc7n6C6CCC6)C5)C4)nc3)no2)C(C)C)cc1 [Compound 62, (2S,4R)-1-((R)-2-(3-(2-(6-(5-cyclobutyl-3-(2-hydroxyphenyl)-5H-pyrrolo[3,2-c]pyridazin-6-yl)-2-azaspiro[3.3]heptan-2-yl)pyrimidin-5-yl)isoxazol-5-yl)-3-methylbutanoyl)-4-hydroxy-N-((S)-1-(4-(4-methylthiazol-5-yl)phenyl)ethyl)pyrrolidine-2-carboxamide] | < 10 | > 50 | > 10 | A (“A” indicates maximum degradation ≥75%) |
| Cc1ncsc1-c1ccc([C@H](C)NC(=O)[C@@H]2C[C@@H](O)CN2C(=O)[C@@H](c2cc(N3CC4(CC(c5cc6nnc(-c7ccccc7O)cc6n5C56CC(C5)C6)C4)C3)no2)C(C)C)cc1 [Compound 65, (2S,4R)-1-((R)-2-(3-(6-(5-(bicyclo[1.1.1]pentan-1-yl)-3-(2-hydroxyphenyl)-5H-pyrrolo[3,2-c]pyridazin-6-yl)-2-azaspiro[3.3]heptan-2-yl)isoxazol-5-yl)-3-methylbutanoyl)-4-hydroxy-N-((S)-1-(4-(4-methylthiazol-5-yl)phenyl)ethyl)pyrrolidine-2-carboxamide] | < 10 | < 50 |  | A (“A” indicates maximum degradation ≥75%) |
| Cc1ncsc1-c1ccc([C@H](C)NC(=O)[C@@H]2C[C@@H](O)CN2C(=O)[C@@H](c2cc(N3CC4(CC(c5cc6nnc(-c7ccccc7O)cc6n5C5(C)CC5)C4)C3)no2)C(C)C)cc1 [Compound 66, (2S,4R)-4-hydroxy-1-((R)-2-(3-(6-(3-(2-hydroxyphenyl)-5-(1-methylcyclopropyl)-5H-pyrrolo[3,2-c]pyridazin-6-yl)-2-azaspiro[3.3]heptan-2-yl)isoxazol-5-yl)-3-methylbutanoyl)-N-((S)-1-(4-(4-methylthiazol-5-yl)phenyl)ethyl)pyrrolidine-2-carboxamide] | < 10 | > 50 | > 10 | A (“A” indicates maximum degradation ≥75%) |

Continued, in another order:

| DC50 (HiBit-BRM fusion protein) [nM] | Dmax [1] [%] | DC50 [1] [nM] | SMILES | BRM HiBit Degradation Maximum (%) (HiBit-BRM fusion protein) |
| --- | --- | --- | --- | --- |
| > 10 | < 50 |  | CC(C)C(C(=O)N1C[C@H](O)C[C@H]1C(=O)NC1CC1)c1cc(N2CC3(CC(c4cc5nnc(-c6ccccc6O)cc5n4C4CCC4)C3)C2)no1 (stereo partly drawn) [Compound 56, (2S,4R)-1-(2-(3-(6-(5-cyclobutyl-3-(2-hydroxyphenyl)-5H-pyrrolo[3,2-c]pyridazin-6-yl)-2-azaspiro[3.3]heptan-2-yl)isoxazol-5-yl)-3-methylbutanoyl)-N-cyclopropyl-4-hydroxypyrrolidine-2-carboxamide] | A (“A” indicates maximum degradation ≥75%) |
| < 10 | < 50 |  | C#Cc1ccc(CNC(=O)[C@@H]2C[C@@H](O)CN2C(=O)C(c2cc(N3CC4(CC(c5cc6nnc(-c7ccccc7O)cc6n5C5CCC5)C4)C3)no2)C(C)C)cc1 (stereo partly drawn) [Compound 57, (2S,4R)-1-(2-(3-(6-(5-cyclobutyl-3-(2-hydroxyphenyl)-5H-pyrrolo[3,2-c]pyridazin-6-yl)-2-azaspiro[3.3]heptan-2-yl)isoxazol-5-yl)-3-methylbutanoyl)-N-(4-ethynylbenzyl)-4-hydroxypyrrolidine-2-carboxamide] | A (“A” indicates maximum degradation ≥75%) |
| < 10 | < 50 |  | C#Cc1ccc(CNC(=O)[C@@H]2C[C@@H](O)CN2C(=O)C(c2cc(N3CC4(CC(c5cc6nnc(-c7ccccc7O)cc6n5C5CCC5)C4)C3)no2)C(C)C)c(OC)c1 (stereo partly drawn) [Compound 58, (2S,4R)-1-(2-(3-(6-(5-cyclobutyl-3-(2-hydroxyphenyl)-5H-pyrrolo[3,2-c]pyridazin-6-yl)-2-azaspiro[3.3]heptan-2-yl)isoxazol-5-yl)-3-methylbutanoyl)-N-(4-ethynyl-2-methoxybenzyl)-4-hydroxypyrrolidine-2-carboxamide] | A (“A” indicates maximum degradation ≥75%) |
| > 10 | < 50 |  | C#Cc1ccc(CNC(=O)[C@@H]2C[C@@H](O)CN2C(=O)C(c2cc(N3CC4(CC(c5cc6nnc(-c7ccccc7O)cc6n5C5CCC5)C4)C3)no2)C(C)C)c(Cl)c1 (stereo partly drawn) [Compound 59, (2S,4R)-N-(2-chloro-4-ethynylbenzyl)-1-(2-(3-(6-(5-cyclobutyl-3-(2-hydroxyphenyl)-5H-pyrrolo[3,2-c]pyridazin-6-yl)-2-azaspiro[3.3]heptan-2-yl)isoxazol-5-yl)-3-methylbutanoyl)-4-hydroxypyrrolidine-2-carboxamide] | A (“A” indicates maximum degradation ≥75%) |
| > 10 | < 50 |  | CNC(=O)[C@@H]1C[C@@H](O)CN1C(=O)[C@@H](c1cc(N2CC3(CC(c4cc5nnc(-c6ccccc6O)cc5n4C4CCC4)C3)C2)no1)C(C)C [Compound 61, (2S,4R)-1-((R)-2-(3-(6-(5-cyclobutyl-3-(2-hydroxyphenyl)-5H-pyrrolo[3,2-c]pyridazin-6-yl)-2-azaspiro[3.3]heptan-2-yl)isoxazol-5-yl)-3-methylbutanoyl)-4-hydroxy-N-methylpyrrolidine-2-carboxamide] | A (“A” indicates maximum degradation ≥75%) |
| > 10 | < 50 |  | CC(C)[C@@H](C(=O)N1C[C@H](O)C[C@H]1C(=O)N[C@@H](C)c1ccc(F)cc1)c1cc(N2CC3(CC(c4cc5nnc(-c6ccccc6O)cc5n4C4CCC4)C3)C2)no1 [Compound 63, (2S,4R)-1-((R)-2-(3-(6-(5-cyclobutyl-3-(2-hydroxyphenyl)-5H-pyrrolo[3,2-c]pyridazin-6-yl)-2-azaspiro[3.3]heptan-2-yl)isoxazol-5-yl)-3-methylbutanoyl)-N-((S)-1-(4-fluorophenyl)ethyl)-4-hydroxypyrrolidine-2-carboxamide] | A (“A” indicates maximum degradation ≥75%) |
| < 10 | < 50 |  | Cc1ncsc1-c1ccc([C@H](C)NC(=O)[C@@H]2C[C@@H](O)CN2C(=O)[C@@H](c2cc(-c3cnc(N4CC5(CC(c6cc7nnc(-c8ccccc8O)cc7n6C67CC(C6)C7)C5)C4)nc3)no2)C(C)C)cc1 [Compound 64, (2S,4R)-1-((R)-2-(3-(2-(6-(5-(bicyclo[1.1.1]pentan-1-yl)-3-(2-hydroxyphenyl)-5H-pyrrolo[3,2-c]pyridazin-6-yl)-2-azaspiro[3.3]heptan-2-yl)pyrimidin-5-yl)isoxazol-5-yl)-3-methylbutanoyl)-4-hydroxy-N-((S)-1-(4-(4-methylthiazol-5-yl)phenyl)ethyl)pyrrolidine-2-carboxamide] | A (“A” indicates maximum degradation ≥75%) |
